{"source": "patent US11427593B2", "about": "“Bromodomain inhibitor compound and use thereof” (SHANGHAI INSTITUTE OF MATERIA MEDICA, CHINESE ACADEMY OF …, priority 2018, dated 2022)"}
{"tested_on": "MV4-11 cells", "assay": "Cell growth inhibition assay, MV4-11 (CellTiter-Glo, 72 h)", "assay_type": "cell-based", "settings": "Homo sapiens, MV4-11 acute mononuclear leukemia cells", "procedure": "After seeding the cells in the plate, the cells were placed in a CO2 incubator (37° C., 5% CO2) and incubated for 1 h. […] After adding the compound, the cells were placed in a CO2 incubator (37° C., 5% CO2) for 72 h. CellTiter-Glo reagent (Promega, G7572) was used to determine cell survival. […] The detection result was analyzed and fitted by GraphPad Prism 5.0 software to give IC50 values.", "units": {"IC50": "nM"}}
{"smiles": "Cc1cc(-c2cc(NS(C)(=O)=O)ccc2OC2CCOCC2)n2cc[nH]c(=O)c12", "note": "[ZB-BD-96]", "IC50": "< 100"}
{"smiles": "Cc1cccc(C)c1Oc1ccc(NS(C)(=O)=O)cc1-c1cc(C)c2c(=O)[nH]ccn12", "note": "[ZB-BD-236]", "IC50": 48.5}
{"smiles": "Cc1cc(-c2cc(NS(C)(=O)=O)ccc2Oc2ccccc2)n2cn[nH]c(=O)c12", "note": "[ZB-BD-102]", "IC50": "< 100"}
{"smiles": "CCS(=O)(=O)c1ccc(Oc2ccccc2C)c(-c2cc(C)c3c(=O)[nH]ccn23)c1", "note": "[ZB-BD-240]", "IC50": 5.3}
{"smiles": "CCS(=O)(=O)Cc1ccc(Oc2c(C)cccc2C)c(-c2cc(C)c3c(=O)[nH]ccn23)c1", "note": "[ZB-BD-237]", "IC50": 21.6}
{"smiles": "Cc1cc(-c2cc(NS(C)(=O)=O)ccc2Oc2ccc(F)cc2F)n2cn[nH]c(=O)c12", "note": "[ZB-BD-103]", "IC50": "< 100"}
{"smiles": "Cc1cc(-c2cc(CS(C)(=O)=O)ccc2Nc2ccc(F)cc2)n2cc[nH]c(=O)c12", "note": "[ZB-BD-90]", "IC50": 76.6}
{"smiles": "Cc1cc(-c2cc(NS(C)(=O)=O)ccc2OCC2CC2)n2cc[nH]c(=O)c12", "note": "[ZB-BD-83]", "IC50": 131}
{"smiles": "CCS(=O)(=O)c1ccc(Oc2c(C)cccc2C)c(-c2cc(C)c3c(=O)[nH]ccn23)c1", "note": "[ZB-BD-239]", "IC50": 90.6}
{"smiles": "Cc1ccccc1Oc1ccc(NS(C)(=O)=O)cc1-c1cc(C)c2c(=O)[nH]ccn12", "note": "[ZB-BD-232]", "IC50": 25.4}
{"smiles": "CCS(=O)(=O)Cc1cnc(Oc2ccc(F)cc2F)c(-c2cc(C)c3c(=O)[nH]ncn23)c1", "note": "[ZB-BD-241]", "IC50": 7.9}
{"smiles": "Cc1cc(-c2cc(CS(C)(=O)=O)ccc2Nc2ccccc2)n2cc[nH]c(=O)c12", "note": "[ZB-BD-87]", "IC50": 78.7}
{"smiles": "Cc1cc(-c2cc(NS(C)(=O)=O)ccc2Oc2ccc(F)cc2F)n2cc[nH]c(=O)c12", "note": "[ZB-BD-80]", "IC50": 29.2}
{"smiles": "Cc1cc(-c2cc(NS(C)(=O)=O)ccc2Oc2ccccc2)n2cc[nH]c(=O)c12", "note": "[ZB-BD-70]", "IC50": 33.1}
{"smiles": "CCS(=O)(=O)Nc1ccc(Oc2ccccc2)c(-c2cc(C)c3c(=O)[nH]ccn23)c1", "note": "[ZB-BD-77]", "IC50": 13.4}
{"smiles": "Cc1cc(-c2cc(NS(C)(=O)=O)ccc2Oc2cccnc2)n2cc[nH]c(=O)c12", "note": "[ZB-BD-94]", "IC50": 91}
{"smiles": "Cc1cc(-c2cc(NS(C)(=O)=O)ccc2Oc2cccnc2)n2cn[nH]c(=O)c12", "note": "[ZB-BD-120]", "IC50": 113}
{"smiles": "CCS(=O)(=O)Nc1ccc(Oc2ccc(F)cc2F)c(-c2cc(C)c3c(=O)[nH]ccn23)c1", "note": "[ZB-BD-78]", "IC50": 20.4}
{"smiles": "Cc1cc(-c2cc(NS(C)(=O)=O)ccc2Oc2ccccc2)n2c1C(=O)NCC2", "note": "[ZB-BD-74]", "IC50": 31.2}
{"tested_on": "MM.1S cells", "assay": "MM.1S cell growth inhibition assay (CellTiter Glo, 96 h)", "assay_type": "cell-based", "settings": "Homo sapiens, MM1.S, MM.1S multiple myeloma cells", "procedure": "(§1) The cell suspension was pipetted into a 15 mL centrifuge tube, and centrifuged at 800 rpm for 3 minutes. The supernatant was discarded. 2 mL of culture medium was added to the centrifuge tube, and the cells were resuspended evenly by gentle pipetting. The cell density was measure by a hemacytometer. Then the cell suspension was diluted to 50,000 cells/mL. The diluted cell suspension was added to a 96-well cell culture plate (Corning, 3599) in 100 μl/well (in column 1, there was 0.5% DMSO-containing medium in each well, and MM.1S cells were seeded in the remaining 88 wells). The plate was placed in a CO2 incubator overnight.\n(§2) The compound to be tested was prepared into 10 mM solution in DMSO, and then the compound was prepared into a 2 mM solution in DMSO, which was added to the compound plate, and then it was diluted with DMSO in a 4-fold gradient dilution to be 7 points. 0.5 μL of the compound in the plate of the compound to be tested was pipetted into the cell culture plate (the compound was added to rows A to G, and 0.5 μL of DMSO was added to row H as a control). The final concentrations of the compound were 10000 nM, 2500 nM, 625 nM, 156.25 nM, 39.06 nM, 9.77 nM, 2.44 nM. The plate was returned to the CO2 incubator and incubated for 96 h. Then cell survival was detected by using CellTiter Glo reagent (Promega, Cat. No. G7573, Lot. No. 0000310975). The cell culture plate was taken out and equilibrated to room temperature. 100 μL of CellTiter Glo reagent was added to each well. The plate was shaken for 10 min in the dark, and incubated for 10 min. Then the culture plate was put into a multi-functional microplate reader EnSpire (PerkinElmer) for reading, and detected at 400-700 nm. The reading data were recorded. […] XLFit was used to plot the dose-response inhibition curve (four-parameter model [fit=(A+((B−A)/(1+((C/x)^D))))] and calculate the IC50 values.", "units": {"IC50": "nM"}}
{"smiles": "Cc1cc(-c2cc(NS(C)(=O)=O)ccc2OC2CCCCC2)n2cc[nH]c(=O)c12", "note": "[ZB-BD-92]", "IC50": 39.2}
{"smiles": "Cc1cc(-c2cc(CS(C)(=O)=O)ccc2OC2CCCCC2)n2cc[nH]c(=O)c12", "note": "[ZB-BD-187]", "IC50": 22.8}
{"smiles": "Cc1cc(-c2cc(CS(C)(=O)=O)cnc2OC2CCCCC2)n2cc[nH]c(=O)c12", "note": "[ZB-BD-202]", "IC50": 25.7}
{"smiles": "Cc1cc(-c2cc(CS(C)(=O)=O)cnc2Oc2ccc(F)cc2F)n2cc[nH]c(=O)c12", "note": "[ZB-BD-147]", "IC50": 73.5}
{"smiles": "Cc1cc(-c2cc(NS(C)(=O)=O)cnc2OC2CCCCC2)n2cc[nH]c(=O)c12", "note": "[ZB-BD-179]", "IC50": 53.2}
{"smiles": "CCS(=O)(=O)Cc1cnc(Oc2ccc(F)cc2F)c(-c2cc(C)c3c(=O)[nH]ccn23)c1", "note": "[ZB-BD-216]", "IC50": 14.2}
{"smiles": "CCS(=O)(=O)Cc1ccc(Oc2ccc(F)cc2F)c(-c2cc(C)c3c(=O)[nH]ccn23)c1", "note": "[ZB-BD-116]", "IC50": 70.3}
{"smiles": "CCS(=O)(=O)Nc1ccc(Oc2ccc(F)cc2F)c(-c2cc(C)c3c(=O)[nH]ccn23)c1", "note": "[ZB-BD-78]", "IC50": 52.1}
{"smiles": "Cc1cc(-c2cc(CS(C)(=O)=O)ccc2Oc2ccc(F)cc2F)n2cc[nH]c(=O)c12", "note": "[ZB-BD-112]", "IC50": 64.3}
{"tested_on": "MM.1S cells", "assay": "MM.1S cell growth inhibition assay (CellTiter Glo, 96 h)", "assay_type": "cell-based", "settings": "MM.1S multiple myeloma cells", "procedure": "as §1, §2", "units": {"IC50": "nM"}}
{"smiles": "Cc1sc2c(c1C)C(c1ccc(Cl)cc1)=N[C@@H](CC(=O)OC(C)(C)C)c1nnc(C)n1-2", "note": "[JQ1, reference compound]", "IC50": 181}
{"biological_target": "BRD4_BD1 (49-170) protein (Homo sapiens (Human), UniProt O60885)", "assay": "AlphaScreen assay: inhibition of binding of BRD4 bromodomain BD1 to acetylated histone H4 polypeptide", "settings": "BRD4 BD1 vs acetylated H4 polypeptide, read-out: ALPHA IC50", "source_text": "AlphaScreen kit (Perkin Elmer) was used to detect effect of the compounds on binding of BRD4 bromodomain to acetylated histone H4 polypeptide. […] Each of fusion proteins containing (His)6tag can be recognized and bound by Ni^2+. […] The donor microbeads were coated with streptavidin and can bind to biotinylated acetylated H4 polypeptide. The acceptor microbeads were coated with Ni^2+ ions and can bind to the BD1 protein with (His)6tag. When the BD1 protein recognized the acetylated H4 polypeptide, the donor microbeads and the acceptor microbeads can be brought closer to a certain distance. Within this range, the donor microbeads can produce singlet oxygen after being irradiated with a 680 nm excitation light, and transfer the singlet oxygen to the acceptor microbeads. After a series of cascade chemical reactions, the acceptor microbeads will generate an emission wave of 520-620 nm, which in turn can be detected a signal. In this experiment, the test system was 20 μL, and the compound needs to be diluted in buffer 1 (20 mM HEPES pH 7.4, 150 mM NaCl, 1 mM dithiothreitol). First, a solution of 20 mM compound was consecutively diluted twice, each in 10 times, totally in 100 times to a concentration of 200 μM. […] The recombinant BD1 protein solution and the acetylated histone H4 polypeptide were diluted in the buffer 2 (20 mM HEPES pH 7.4, 150 mM NaCl, 0.01% Triton X-100, 0.1% bovine serum protein (w/v, Sigma), 1 mM dithiothreitol) to 100 nM and 100 nM respectively, to obtain a 8×BD1 protein working solution and a 4× acetylated histone H4 polypeptide working solution. The donor microbeads and the acceptor microbeads are diluted together in the buffer 2, both in the ratio of 1:100, to obtain a 2× microbead mixed working solution. The plate was added with 2.5 μL of BD1 protein working solution and incubated with the compound for 20 min at room temperature, and then added with 5 μL of acetylated histone H4 polypeptide working solution and incubated at room temperature for 5 min, and finally added with 10 μL of microbead mixed working solution and incubated at room temperature for 60 min. […] IC50 values of the compounds at different concentrations for inhibiting the binding of BD1 protein to acetylated H4 polypeptide were calculated by fitting using GraphPad Prism 5.0 software.", "units": {"IC50": "nM"}}
{"smiles": "Cc1cc(-c2cc(S(C)(=O)=O)ccc2Nc2ccccc2)n2cc[nH]c(=O)c12", "note": "[ZB-BD-130]", "IC50": 326}
{"smiles": "CCS(=O)(=O)Cc1cnc(Oc2ccc(F)cc2F)c(-c2cc(C)c3c(=O)[nH]ncn23)c1", "note": "[ZB-BD-241]", "IC50": 14.3}
{"smiles": "CCS(=O)(=O)Cc1ccc(Oc2ccc(F)cc2F)c(-c2cc(C)c3c(=O)[nH]ccn23)c1", "note": "[ZB-BD-116]", "IC50": 8.8}
{"smiles": "Cc1cc(-c2cc(NS(C)(=O)=O)ccc2Oc2cccnc2)n2cc[nH]c(=O)c12", "note": "[ZB-BD-94]", "IC50": 14}
{"smiles": "Cc1cc(-c2cc(NS(C)(=O)=O)ccc2Oc2cccnc2)n2cn[nH]c(=O)c12", "note": "[ZB-BD-120]", "IC50": 36.6}
